# Measured values taken from patent publication US20260116957A1, “PHARMACEUTICAL COMPOSITION FOR AMELIORATING ACUTE LUNG INJURY AND ACUTE WORSENING OF PULMONARY FIBROSIS” (priority 2021, published 2026).
# Like-named read-outs stand apart in the source and are kept apart here. Residues, ends and D or L forms follow the SMILES beside them.
# Experiments:
# [1] = tested on: peptidase fraction prepared from Staphylococcus nepalensis culture supernatant (putative serine protease); type: biochemical
# [2] = tested on: A549 alveolar epithelial cells; test: RT-PCR of mRNA expression of pro-apoptotic and anti-apoptotic factors; type: cell-based, human; conditions: 50 μM corisin, 24 hours, vs scrambled peptides
# Experimental: Next, the effect of corisin on mRNA expression of markers for pro-apoptotic factors such as Bax and anti-apoptotic factors BIRC1, BIRC5, BIRC7, Bcl2, BclXL, cyclin D1, proliferating cell nuclear antigens, and proliferating Ki-67 were examined. A549 alveolar epithelial cells were cultured in the presence of 50 μM corisin for 24 hours, total mRNA was extracted, and cDNA was prepared and amplified by RT-PCR.
# [3] = Half-life of corisin in A549 cell culture medium; conditions: A549 alveolar epithelial cell culture (cell supernatant), human alveolar (A549) cell culture system, read-out: half-life in the solution
# Experimental: In order to ascertain how quickly corisin is metabolized in a cell culture system, the half-life of corisin was investigated. A549 alveolar epithelial cells were cultured in DMEM to which 10% fetal bovine serum had been added until confluent. Next, corisin was inoculated into a cell culture medium at a final concentration of 10 micrograms/mL, and cell supernatant was collected after 0, 1, 3, 6, 12, and 24 hours. The concentration of corisin was measured by an enzyme immunoassay method, and the half-life of corisin was examined. […] Therefore, serum corisin measurements should be performed immediately after the onset of acute exacerbation.
# [4] = tested on: mice having established pulmonary fibrosis; conditions: cited from earlier work
# [5] = tested on: A549 alveolar epithelial cells; test: Apoptosis assay of A549 cells (flow cytometry, annexin V / propidium iodide); type: cell-based, human; conditions: for concentration at which apoptotic activity is shown: synthetic corisin; for apoptotic activity compared with the parent corisin sequence: single amino acid mutants, FIG. 35
# [6] = tested on: Caki-2, HaCaT, ARPE-19, Caco-2, HIEC-6 and ihPOD cells; test: Caspase-3 cleavage by Western blotting in further epithelial cell lines; type: cell-based, human; conditions: 10 μg/mL peptide, 24 hours, all cell lines, vs scrambled peptide
# Description: Caki-2 cell line derived from proximal tubular epithelium, HaCaT keratinocyte cell line derived from adult skin, ARPE-19 retinal pigment epithelial cell line, Caco-2 cell line derived from colon cancer, and HIEC-6 cell line derived from normal human small intestinal epithelial cells were obtained from the American Type Culture Collection (American Type Culture Collection; Manassas, VA). RPMI 1640 culture medium was purchased from Sigma-Aldrich (St. Louis, Missouri) and fetal bovine serum (FBS) was purchased from Bio Whittaker (Bio Whittaker; Walkersville, Maryland). L-glutamine, penicillin, and streptomycin were obtained from Invitrogen (Carlsbad, California). Caki-2 cells, Caco-2 cells, and ihPOD cells were cultured in RPMI 1640 culture medium, HaCaT cells in DMEM culture medium, ARPE-19 cells in DMEM/F12 culture medium, and HIEC-6 cells in DMEM culture medium.
# Each cell line was cultured until subconfluent to examine caspase-3 cleavage by Western blotting. […] Cells were stimulated with 10 μg/mL of a scrambled peptide, corisin, or corisin-like peptide, cultured for 24 hours, and then Western blotting was performed.
# [7] = tested on: mice with bleomycin-induced pulmonary fibrosis; test: Intratracheal corisin in mice with bleomycin-induced pulmonary fibrosis; type: in vivo, mouse; conditions: for CT scores after intratracheal corisin: 300 pg/mouse on day 20
# Description: AE-Inducing Action of Corisin in Bleomycin-Induced Pulmonary Fibrosis Bleomycin (BLM)-induced pulmonary fibrosis in mice or rats is the most characterized and commonly used preclinical model for IPF studies (Reference Literature 28). It is unclear whether corisin exacerbates disease in BLM-induced pulmonary fibrosis. To address this question, an experimental model was developed in wild-type (WT) mice by infusing BLM via osmotic minipumps and administering corisin via intratracheal instillation (FIG. 21a). Bleomycin (BLM) or physiological saline (SAL) was infused from osmotic minipumps implanted subcutaneously in the backs of mice according to the experiment schedule for inducing acute exacerbation in mice with bleomycin-induced pulmonary fibrosis shown in FIG. 21a. Computed tomography (CT) scans were performed before and after intratracheal administration of corisin or a scrambled peptide before mouse euthanasia. Mice administered SAL via osmotic minipumps and intratracheal corisin or a scrambled peptide were used as a control. Mice were euthanized 22 days after BLM or SAL pump implantation.
# After confirming pulmonary fibrosis onset by chest CT, autologous CT score criteria (FIG. 21b) were used to assign mice into two groups with concordant CT scores.
# Wild-type (WT) mice were administered bleomycin (BLM) by osmotic minipump on day 0 and intratracheally instilled (75 μL) with corisin or a scrambled peptide (300 pg/mouse) on day 20 post-pump implantation. CTs were performed as described in Example 2. […] Next, wild-type (WT) mice were administered physiological saline (SAL) by osmotic minipump on day 0 and intratracheally instilled (75 μL) with corisin or a scrambled peptide (300 pg/mouse) on day 20 post-pump implantation.
# Next, inflammatory cells and the like in mice with BLM-induced pulmonary fibrosis which had been administered intratracheal corisin were examined. Wild-type (WT) mice were administered bleomycin (BLM) or physiological saline (SAL) by osmotic minipump on day 0 and intratracheally instilled (75 μL) with corisin or a scrambled peptide ([…]) on day 20 post-pump implantation. BALF total cell counts were determined using a NucleoCounter and cell fraction counts were conducted after Giemsa staining using WindRoof image software. Levels of serum amyloid P component (SAP), MUC-1, monocyte chemoattractant protein-1 (MCP-1), periostin, collagen I, and osteopontin were measured by enzyme immunoassay according to the manufacturer's instructions.
# Next, caspase-3 cleavage was evaluated by Western blotting and quantified. […] Collagen deposition was evaluated using Masson's trichrome staining and quantified using WindRoof imaging software. Pulmonary tissue content of hydroxyproline was measured by colorimetric analysis using a commercially available kit in accordance with the manufacturer's instructions. […] These findings indicate that corisin also exacerbates disease in BLM-induced pulmonary fibrosis.
# [8] = tested on: TGFβ1 TG mice with pulmonary fibrosis; test: Corisin-induced acute exacerbation of pulmonary fibrosis in TGFβ1 TG mice; type: in vivo, mouse; conditions: TGFβ1 TG mice with fibrosis treated with isotype antibody
# Experimental: Next, TGFβ1 TG mice with pulmonary fibrosis were then assigned to two groups having corresponding computed tomography (CT) scan scores (FIG. 18a, b). CT examinations were performed as follows.
# Lung CT was performed using a LaTheta LCT-200 micro CT purchased from Hitachi Aloka Medical (Tokyo, Japan). Mice were anesthetized by inhalation of isoflurane and then placed in the prone position to collect data (Non-Patent Literature 19, Reference Literature 61). Seven to nine specialists in pulmonary radiology, blinded to treatment groups, scored the CT findings on the TGFβ1 TG mice with pulmonary fibrosis based on previously reported and validated criteria as follows. Score 1, Normal lung findings; score 2, interim findings; score 3, mild pulmonary fibrosis; score 4, interim findings; score 5, moderate pulmonary fibrosis; score 6, interim findings; and score 7, progressive pulmonary fibrosis (Non-Patent Literature 19). The same criteria were used to score pulmonary inflammation and fibrosis in a BLM-induced pulmonary fibrosis mouse model (FIG. 21b).
# A group of fibrosis-free TGFβ1 TG mice administered intratracheal corisin served as a control (FIG. 18a, b). […]
# [9] = BLM mice, 300 μg/mouse intratracheal, vs scrambled peptide
# [10] = BLM mice, corisin vs scrambled peptide
compound,measurement,setting,value
"O=C(O)CN(CCN(CC(=O)O)CC(=O)O)CC(=O)O [EDTA, ethylenediaminetetraacetic acid]",suppression of transglycosylase degradation,[1],neither E-64 nor EDTA suppressed transglycosylase degradation
Cl.NCCc1ccc(S(=O)(=O)F)cc1 [Pefabloc SC],suppression of transglycosylase degradation,"[1]; 0.1, 0.3, 1 mM, 37° C. for 0.5, 1 and 2 hours",suppress transglycosylase degradation
"CC[C@H](C)[C@H](N)C(=O)N[C@H](C(=O)N[C@@H](CCSC)C(=O)N1CCC[C@H]1C(=O)N[C@@H](CCC(=O)O)C(=O)N[C@@H](CO)C(=O)N[C@@H](CO)C(=O)NCC(=O)N[C@@H](CC(N)=O)C(=O)N1CCC[C@H]1C(=O)N[C@@H](CC(N)=O)C(=O)N[C@@H](C)C(=O)N[C@H](C(=O)N[C@@H](CC(N)=O)C(=O)N1CCC[C@H]1C(=O)N[C@@H](C)C(=O)NCC(=O)N[C@@H](Cc1ccc(O)cc1)C(=O)N[C@@H](CCCNC(=N)N)C(=O)O)C(C)C)C(C)C [corisin, IVMPESSGNPNAVNPAGYR] (H-IVMPESSGNPNAVNPAGYR-OH; N-terminus and C-terminus assumed)",mRNA expression of anti-apoptotic factors,[2],significantly reduced
same,mRNA expression of pro-apoptotic factors such as Bax and APAF-1,[2],significantly increased
same,half-life at 10 micrograms/mL,[3],< 1 h
same,effect of intrapulmonary administration,[4],causes apoptosis of alveolar epithelial cells and acute exacerbation (AE)
same,concentration at which apoptotic activity is shown,[5],10 pg/mL
same,concentration at which apoptotic activity is shown,[5]; A549 cells,1e+07 pg/mL
same,apoptosis-inducing activity compared to the Staphylococcus haemolyticus peptide,"[5]; synthetic peptides, A549 cells, FIG. 3",slightly higher
same,cleavage of caspase-3,[6],significantly increased
same,circulation level of serum amyloid P component,[7]; [9],increased
same,level of MUC-1,[7]; [9],increased
same,level of collagen I,[7]; [9],increased
same,level of monocyte chemoattractant protein-1 (MCP-1),[7]; [9],increased
same,level of osteopontin,[7]; [9],increased
same,level of periostin,[7]; [9],increased
same,total number of lymphocytes in BALF,[7]; [9],increased significantly
same,collagen deposition in the lungs,[7]; [10],increased
same,hydroxyproline content in the lungs,[7]; [10],increased
same,caspase-3 cleavage (Western blotting),"[7]; BLM mice, intratracheal corisin vs scrambled peptide",significantly increased
same,changes in mice administered physiological saline via osmotic minipump,[7]; SAL pump mice without fibrosis,no significant changes
same,CT scores after intratracheal corisin,[7]; WT mice with BLM-induced pulmonary fibrosis,worsened significantly
same,CT scores after intratracheal corisin,[7]; mice without pulmonary fibrosis (SAL pump),did not change
same,CT findings after intratracheal corisin,[8],significantly worse
IVMPESSGNPNAVNAAGYR [corisin P15A],apoptotic activity compared with the parent corisin sequence,[5],devoid of apoptotic activity
IVMPESSGNPNAVSPAGYR [corisin N14S],apoptotic activity compared with the parent corisin sequence,[5],devoid of apoptotic activity
